PubChem BioAssay AID2384 (Southern Research Specialized Biocontainment Screening …, 2010)

Each compound was assayed on S. typhi GFP reporter counter-screen, fluorescence, 4 h (assay: S. typhi counter-screen signal inhibition – fluorescence, 4 h, counter-screen for PhoP regulon inhibitor project, dose response (AID 2384)).
`Cc1cc(C)nc(/N=C(\N)Nc2ccc(SC(F)F)cc2)n1` gave an IC50 of 51.3 µM. In the case of `CO[C@@]1(NC(=O)Cc2cccs2)C(=O)N2C(C(=O)O)=C(COC(N)=O)CS[C@@H]21`, the IC50 is reported as 7.08 µM. `CC1(C)N=C(N)NC(Nc2cccc(Br)c2)=N1` was tested, and the IC50 was 72.5 µM. `CO[C@H]1C=CO[C@@]2(C)Oc3c(C)c(O)c4c(O)c(c5c(c4c3C2=O)NC2(CCN(CC(C)C)CC2)N=5)=NC(=O)C(C)=CC=C[C@H](C)[C@H](O)[C@@H](C)[C@@H](O)[C@@H](C)[C@H](OC(C)=O)[C@@H]1C` showed an IC50 of 2.19 µM. `C/C(=N/Nc1ccnc2cc(Cl)ccc12)c1ccc(N)cc1` showed an IC50 of 73.9 µM. In the case of `COc1cccc(NC2=NC3(CCCCC3)N=C(N)N2)c1`, the IC50 is reported as 148 µM. `c1ccc(N2CCN(c3nc4ccccc4[nH]3)CC2)nc1` was tested, and the IC50 was 138 µM. Compound `O=C(CCN1CCN(C(=O)c2ccccc2)CC1)c1ccc(Br)cc1` has an IC50 of 81.6 µM. `COc1cc([N+](=O)[O-])cc(/C=N/NC(=O)CSc2ccccn2)c1O` was tested, and the IC50 was 93.2 µM. With `c1ccc(CN2CCN(c3ncnc4c3[nH]c3ccccc34)CC2)cc1` the IC50 was 73.8 µM. Compound `CSc1ccc2c(c1)N(CCC1CCCCN1C)c1ccccc1S2` (centres undefined) has an IC50 of 37.2 µM. With `CC(=O)NC(c1cccc([N+](=O)[O-])c1)c1ccc2cccnc2c1O` (centres undefined) the IC50 was 101 µM. For `CC(C)(c1ccccc1)c1ccc(OCCCN2CCNCC2)cc1`, the IC50 was 39.7 µM. For `N=c1n(Cc2ccc(Cl)cc2)c2ccccc2n1CC(O)COc1ccccc1` (centres undefined), the IC50 was 36.6 µM. `CCNC(=O)Oc1ccc[nH]c1=O` gave an IC50 of 53.8 µM. In the case of `CNCCCN1c2ccccc2CCc2ccccc21`, the IC50 is reported as 77.6 µM. Compound `COc1ccc(C(=O)NC(=S)NNC(=O)CCc2ccccc2)cc1` has an IC50 of 138 µM. In the case of `Cc1ccc(Nc2cc(C)nn2-c2nc(C)cc(=O)[nH]2)cc1`, the IC50 is reported as 11.2 µM. With `CC[C@@H](C)[C@H](CNC)NC[C@@H](Cc1cccc2ccccc12)NCCc1cccc(C(F)(F)F)c1` the IC50 was 18.8 µM. For `OCCN1CCN(CCCN2c3ccccc3Sc3ccc(C(F)(F)F)cc32)CC1`, the IC50 was 75.1 µM. With `O=C(Nc1ccncc1)Nc1ccc(Cl)cc1` the IC50 was 85.2 µM. `Cc1ccc2c(c1)sc(-c1ccc(N(C)C)cc1)[n+]2C` showed an IC50 of 35.3 µM. In the case of `CC1CCN(CCCCOc2ccc(Cl)cc2)CC1`, the IC50 is reported as 136 µM. `O=C(Nc1nnc(-c2ccccn2)o1)c1cccc(Cl)c1` was tested, and the IC50 was 91.9 µM. `Cc1ccc(C)c(N/C(N)=N/c2nc(C)cc(C)n2)c1` was tested, and the IC50 was 67.4 µM. For `Nc1nonc1-n1nnc(C(=O)N/N=C/c2cc(Br)ccc2O)c1CSC1=NCCS1`, the IC50 was 24.1 µM. `CN(C)CCCOC(=O)c1sc2ccccc2c1Cl` was tested, and the IC50 was 68.6 µM. In the case of `O/N=C/C1=C(Cl)c2ccccc2CC1`, the IC50 is reported as 93.4 µM. In the case of `O=C(C[n+]1cc(-c2ccc(Cl)cc2)n2c1CCC2)N1c2ccccc2Sc2ccccc21`, the IC50 is reported as 50.9 µM. For `Clc1ccc(OCCCNCc2ccccc2)c2ccccc12`, the IC50 was 18.3 µM. `CCN1CCN(Cc2ccc(NC(=O)c3cc(NC(=O)c4cc(-c5ccc(OC)cc5)n[nH]4)cc(OC)c3)cc2C(F)(F)F)CC1` gave an IC50 of 145 µM. `O=c1[nH][nH]c(-c2ccccc2O)c1C(C[N+](=O)[O-])c1ccc(Br)cc1` (centres undefined) was tested, and the IC50 was 63 µM. `CN1CCC(OC(=O)c2ccc(Br)cc2)CC1` showed an IC50 of 18.2 µM. `CCCCOc1ccc(NC2=NC3(CCCCC3)N=C(N)N2)cc1` gave an IC50 of 34.7 µM. In the case of `CN1CCCN(C(c2ccccc2)c2ccc(Cl)cc2)CC1` (centres undefined), the IC50 is reported as 37.7 µM. Compound `O=c1[nH]c(-c2ccccn2)nc(C(F)(F)F)c1Br` has an IC50 of 51.3 µM. Work on `CCCCCCCCCC[N+](C)(C)CC/C=C1/c2ccccc2Sc2ccc(Cl)cc21` yielded an IC50 of 14 µM. For `CCN1/C(=C/c2cc[n+](C)cc2)C=Cc2cc(C)ccc21`, the IC50 was 39.4 µM. With `CN1CCN(C2=Cc3ccccc3Sc3cc(F)ccc32)CC1` the IC50 was 46.7 µM. For `COc1ccc2nc(N(CCN(C)C)C(=O)/C=C/c3cccs3)sc2c1`, the IC50 was 65.8 µM. For `CN1/C(=C\C=C\C2=[N+](C)c3ccc4ccccc4c3C2(C)C)C(C)(C)c2ccccc21`, the IC50 was 8.85 µM. `CN(CCOc1ccc(Cl)cc1)CC(O)c1ccccc1` (centres undefined) gave an IC50 of 126 µM. Compound `CCCCCCCCCCOC(=O)Cn1c(COc2ccc(C)cc2)[n+](C)c2ccccc21` has an IC50 of 18.3 µM. For `O=S1(=O)CC=C(CSC(=S)NC2CCS(=O)(=O)C2)C1` (centres undefined), the IC50 was 39.1 µM. Compound `Oc1[nH]c2ccc(Br)cc2c1N=NC(=S)N1CCOCC1` has an IC50 of 33.1 µM. In the case of `CCn1cc(C(=O)O)c(=O)c2cc(F)c(N3CCN(C(=S)NC(=O)c4ccccc4C)CC3)cc21`, the IC50 is reported as 49.3 µM. `CN(C)CCN(C(=O)C1=COCCO1)c1nc2ccc(Cl)cc2s1` gave an IC50 of 49.5 µM. Work on `C(=N/Nc1nccs1)/c1cccnc1` yielded an IC50 of 49.5 µM. With `CN1CCC(=C2c3ccccc3C=Cc3ccccc32)CC1` the IC50 was 77.5 µM. In the case of `CCCCCC(CC(=O)NO)C(=O)NC(C(=O)N1CCCC1CO)C(C)C` (centres undefined), the IC50 is reported as 20.3 µM. Work on `O=C(N/N=C/c1c(O)ccc2ccccc12)c1ccc(CO)nc1` yielded an IC50 of 81.7 µM. `OC1CCCN(Cc2ccc3ccc4cccc5ccc2c3c45)C1` (centres undefined) was tested, and the IC50 was 59.9 µM. `NC1=NC[C@H](c2ccccc2)N1CCCCC1CCCCC1` showed an IC50 of 28.9 µM. Compound `CO[C@@]1(NC(=O)C2SC(=C(C(N)=O)C(=O)O)S2)C(=O)N2C(C(=O)O)=C(CSc3nnnn3C)CS[C@@H]21` (some centres undefined) has an IC50 of 10.3 µM. With `N#C/C(=C(/O)c1ccco1)c1nc2ccccc2s1` the IC50 was 57.6 µM. With `COc1cc(/C=N/N=C(N)N)ccc1OCc1ccc(Cl)cc1` the IC50 was 46.8 µM. In the case of `O=[N+]([O-])c1cc(Cl)c2cccnc2c1O`, the IC50 is reported as 4.25 µM. Work on `CCn1nnc(NC(=O)c2ccc([N+](=O)[O-])o2)n1` yielded an IC50 of 80 µM. `Oc1ccc(COCc2ccccc2)c2cccnc12` showed an IC50 of 29.2 µM.
